Data reported in PubChem BioAssay (NCI).
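All cell lines were grown in 96-well plates and treated with compound for 48 hours. TGI denotes the concentration required for complete inhibition of growth.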

What was measured:
Assay in all cases: growth of human tumour cells (NCI), 48 h
[1] = test system: M14 melanoma
[2] = test system: OVCAR-4 ovarian
[3] = test system: CAKI-1 renal
[4] = test system: ACHN renal
[5] = test system: OVCAR-8 ovarian
[6] = test system: EKVX NSCLC
[7] = test system: MDA-MB-231 breast
[8] = test system: SF-295 CNS
[9] = test system: SK-OV-3 ovarian
[10] = test system: SF-539 CNS
[11] = test system: HOP-92 NSCLC
[12] = test system: HCT-15 colon
[13] = test system: SW-620 colon
[14] = test system: OVCAR-3 ovarian
[15] = test system: CCRF-CEM leukemia
[16] = test system: UACC-257 melanoma
[17] = test system: UO-31 renal
[18] = test system: TK-10 renal
[19] = test system: HL-60(TB) leukemia

Structure (SMILES) | TGI [1] | TGI [2] | TGI [3] | TGI [4] | TGI [5] | TGI [6] | TGI [7] | TGI [8] | TGI [9] | TGI [10] | TGI [11] | TGI [12] | TGI [13] | TGI [14] | TGI [15] | TGI [16] | TGI [17] | TGI [18] | TGI [19]
COC(=O)c1cc(C#N)[nH]c1-c1cccs1 | > 100 µM | > 100 µM | > 100 µM | > 100 µM | > 100 µM | > 100 µM | > 100 µM | > 100 µM | > 100 µM | > 100 µM | > 100 µM | > 100 µM | > 100 µM | > 100 µM | > 100 µM | > 100 µM | > 100 µM |  | 
COc1c(O)cc2c(c1O)C1O[C@H](CO)C(O)[C@H](O)[C@H]1OC2=O (stereo partly specified) | > 100 µM | > 100 µM | > 100 µM | > 100 µM | > 100 µM |  | > 100 µM | > 100 µM | > 100 µM | > 100 µM | > 100 µM | > 100 µM | > 100 µM | > 100 µM | > 100 µM | > 100 µM |  | > 100 µM | > 100 µM
CCOC(=O)Oc1cc2c(ccn2C)c2c1c1ccccc1n2C(=O)OCC | > 100 µM | > 100 µM | > 100 µM | > 100 µM | > 100 µM | > 100 µM | > 100 µM | > 100 µM | > 100 µM | > 100 µM | > 100 µM | > 100 µM | > 100 µM | > 100 µM | > 100 µM | > 100 µM | > 100 µM | > 100 µM | 
CC(CCC(=O)O)[C@H]1CCC2[C@H]3C(CC(=O)[C@@]21C)[C@@]1(C)CCC(O)C[C@H]1C[C@@H]3O (stereo partly specified) | > 100 µM | > 100 µM | > 100 µM | > 100 µM | > 100 µM | > 100 µM | > 100 µM |  |  | > 100 µM | > 100 µM | > 100 µM | > 100 µM |  | > 100 µM | > 100 µM | > 100 µM |  | > 100 µM
C=CC1(c2ccc(Br)cc2)OCCCO1 | > 100 µM | > 100 µM |  | > 100 µM | > 100 µM | > 100 µM | > 100 µM | > 100 µM | > 100 µM | > 100 µM | > 100 µM | > 100 µM | > 100 µM | > 100 µM | > 100 µM | > 100 µM | > 100 µM | > 100 µM | > 100 µM
COc1ccccc1CNCc1nc2ccccc2[nH]1 | > 100 µM | > 100 µM | > 100 µM | > 100 µM | > 100 µM | > 100 µM | > 100 µM | > 100 µM |  | > 100 µM | > 100 µM | > 100 µM | > 100 µM | > 100 µM | > 100 µM | > 100 µM | > 100 µM | > 100 µM | > 100 µM
COC(=O)c1c(C(=O)OC)c(C(c2ccccc2)c2ccccc2)n(-c2ccccc2)c1Cl | > 10 µM | > 10 µM | > 10 µM | > 10 µM | > 10 µM | > 10 µM | > 10 µM | > 10 µM |  | > 10 µM | > 10 µM | > 10 µM | > 10 µM | > 10 µM | > 10 µM | > 10 µM | > 10 µM | > 10 µM | > 10 µM
